# In ChEMBL document CHEMBL3044925, “Synthesis of piperazino and morpholino derivatives of aryloxypropane with potential analgesic and possible antimigraine activities” (Med Chem Res, 2011):
# Assays:
# Mus musculus [1] = test: Neurotoxicity against Mus musculus MFI (mouse) assessed as tail erection at 90 mg/kg, ip; type: toxicity, organism-based; set-up: dose 90 mg/kg, route intraperitoneal; conditions: in vivo
# Mus musculus [2] = test: Neurotoxicity against Mus musculus MFI (mouse) assessed as tremors at 90 mg/kg, ip; type: toxicity, organism-based; set-up: dose 90 mg/kg, route intraperitoneal; conditions: in vivo
# Mus musculus [3] = test: Neurotoxicity against Mus musculus MFI (mouse) assessed as eye protrusion at 90 mg/kg, ip; type: toxicity, organism-based; set-up: dose 90 mg/kg, route intraperitoneal; conditions: in vivo
# Mus musculus [4] = test: Neurotoxicity against Mus musculus MFI (mouse) assessed as hair erection at 90 mg/kg, ip; type: toxicity, organism-based; set-up: dose 90 mg/kg, route intraperitoneal; conditions: in vivo
# Mus musculus [5] = test: Neurotoxicity against Mus musculus MFI (mouse) assessed as effect on respiration at 90 mg/kg, ip; type: toxicity, organism-based; set-up: dose 90 mg/kg, route intraperitoneal; conditions: in vivo
# Mus musculus [6] = test: Neurotoxicity against Mus musculus MFI (mouse) assessed as skeletal muscle incoordination at 90 mg/kg, ip; type: toxicity, organism-based, Muscle tissue; set-up: dose 90 mg/kg, route intraperitoneal; conditions: in vivo
# Mus musculus [7] = test: […] activity in Mus musculus MFI (mouse) assessed as inhibition of PBQ-induced writhing at 90 mg/kg, ip administered 1.5 hr prior to PBQ-challenge measured after 10 min relative to aspirin; type: functional; conditions: route intraperitoneal
# Mus musculus [8] = test: Neurotoxicity against Mus musculus MFI (mouse) assessed as irritability at 90 mg/kg, ip; type: toxicity, organism-based; set-up: dose 90 mg/kg, route intraperitoneal; conditions: in vivo
# Mus musculus [9] = test: Neurotoxicity against Mus musculus MFI (mouse) assessed as epilepsy at 90 mg/kg, ip; type: toxicity, organism-based; set-up: dose 90 mg/kg, route intraperitoneal; conditions: in vivo
# Mus musculus [10] = test: Neurotoxicity against Mus musculus MFI (mouse) assessed as muscle twitching at 90 mg/kg, ip; type: toxicity, organism-based, Muscle tissue; set-up: dose 90 mg/kg, route intraperitoneal; conditions: in vivo
# Mus musculus [11] = test: Neurotoxicity against Mus musculus MFI (mouse) assessed as excitation at 90 mg/kg, ip; type: toxicity, organism-based; set-up: dose 90 mg/kg, route intraperitoneal; conditions: in vivo
# Mus musculus [12] = test: Neurotoxicity against Mus musculus MFI (mouse) assessed as hair erection at 135 mg/kg, ip; type: toxicity, organism-based; set-up: dose 135 mg/kg, route intraperitoneal; conditions: in vivo
# Mus musculus [13] = test: Neurotoxicity against Mus musculus MFI (mouse) assessed as effect on respiration at 50 mg/kg, ip; type: toxicity, organism-based; set-up: dose 50 mg/kg, route intraperitoneal; conditions: in vivo
# Mus musculus [14] = test: Neurotoxicity against Mus musculus MFI (mouse) assessed as muscle twitching at 135 mg/kg, ip; type: toxicity, organism-based, Muscle tissue; set-up: dose 135 mg/kg, route intraperitoneal; conditions: in vivo
# Mus musculus [15] = test: Neurotoxicity against Mus musculus MFI (mouse) assessed as excitation at 135 mg/kg, ip; type: toxicity, organism-based; set-up: dose 135 mg/kg, route intraperitoneal; conditions: in vivo
# Mus musculus [16] = test: Neurotoxicity against Mus musculus MFI (mouse) assessed as skeletal muscle incoordination at 135 mg/kg, ip; type: toxicity, organism-based, Muscle tissue; set-up: dose 135 mg/kg, route intraperitoneal; conditions: in vivo
# Mus musculus [17] = test: Neurotoxicity against Mus musculus MFI (mouse) assessed as excitation at 50 mg/kg, ip; type: toxicity, organism-based; set-up: dose 50 mg/kg, route intraperitoneal; conditions: in vivo
# Mus musculus [18] = test: […] activity in ip dosed Mus musculus MFI (mouse) assessed as inhibition of PBQ-induced writhing administered 1.5 hr prior to PBQ-challenge measured after 10 min; type: functional; conditions: read-out: MED
# Mus musculus [19] = test: […] activity in Mus musculus MFI (mouse) assessed as inhibition of PBQ-induced writhing at 135 mg/kg, ip administered 1.5 hr prior to PBQ-challenge measured after 10 min relative to aspirin; type: functional; conditions: route intraperitoneal
# Mus musculus [20] = test: Neurotoxicity against Mus musculus MFI (mouse) assessed as irritability at 50 mg/kg, ip; type: toxicity, organism-based; set-up: dose 50 mg/kg, route intraperitoneal; conditions: in vivo
# Mus musculus [21] = test: Neurotoxicity against Mus musculus MFI (mouse) assessed as muscle twitching at 50 mg/kg, ip; type: toxicity, organism-based, Muscle tissue; set-up: dose 50 mg/kg, route intraperitoneal; conditions: in vivo
# Mus musculus [22] = test: Neurotoxicity against Mus musculus MFI (mouse) assessed as eye protrusion at 50 mg/kg, ip; type: toxicity, organism-based; set-up: dose 50 mg/kg, route intraperitoneal; conditions: in vivo
# Mus musculus [23] = test: Neurotoxicity against Mus musculus MFI (mouse) assessed as epilepsy at 50 mg/kg, ip; type: toxicity, organism-based; set-up: dose 50 mg/kg, route intraperitoneal; conditions: in vivo
# Mus musculus [24] = test: Neurotoxicity against Mus musculus MFI (mouse) assessed as skeletal muscle incoordination at 50 mg/kg, ip; type: toxicity, organism-based, Muscle tissue; set-up: dose 50 mg/kg, route intraperitoneal; conditions: in vivo
# Mus musculus [25] = test: Neurotoxicity against Mus musculus MFI (mouse) assessed as eye protrusion at 135 mg/kg, ip; type: toxicity, organism-based; set-up: dose 135 mg/kg, route intraperitoneal; conditions: in vivo
# Mus musculus [26] = test: Neurotoxicity against Mus musculus MFI (mouse) assessed as irritability at 135 mg/kg, ip; type: toxicity, organism-based; set-up: dose 135 mg/kg, route intraperitoneal; conditions: in vivo
# Mus musculus [27] = test: Neurotoxicity against Mus musculus MFI (mouse) assessed as tremors at 135 mg/kg, ip; type: toxicity, organism-based; set-up: dose 135 mg/kg, route intraperitoneal; conditions: in vivo
# Mus musculus [28] = test: Neurotoxicity in ip dosed Mus musculus MFI (mouse); type: toxicity, organism-based; conditions: in vivo
# Mus musculus [29] = test: Neurotoxicity against Mus musculus MFI (mouse) assessed as tremors at 50 mg/kg, ip; type: toxicity, organism-based; set-up: dose 50 mg/kg, route intraperitoneal; conditions: in vivo
# Mus musculus [30] = test: Neurotoxicity against Mus musculus MFI (mouse) assessed as epilepsy at 135 mg/kg, ip; type: toxicity, organism-based; set-up: dose 135 mg/kg, route intraperitoneal; conditions: in vivo
# Mus musculus [31] = test: […] activity in Mus musculus MFI (mouse) assessed as inhibition of PBQ-induced writhing at 50 mg/kg, ip administered 1.5 hr prior to PBQ-challenge measured after 10 min relative to aspirin; type: functional; conditions: route intraperitoneal
# Mus musculus [32] = test: Neurotoxicity against Mus musculus MFI (mouse) assessed as tail erection at 135 mg/kg, ip; type: toxicity, organism-based; set-up: dose 135 mg/kg, route intraperitoneal; conditions: in vivo
# Mus musculus [33] = test: Neurotoxicity against Mus musculus MFI (mouse) assessed as tail erection at 50 mg/kg, ip; type: toxicity, organism-based; set-up: dose 50 mg/kg, route intraperitoneal; conditions: in vivo
# Mus musculus [34] = test: Neurotoxicity against Mus musculus MFI (mouse) assessed as effect on respiration at 135 mg/kg, ip; type: toxicity, organism-based; set-up: dose 135 mg/kg, route intraperitoneal; conditions: in vivo
# Mus musculus [35] = test: Neurotoxicity against Mus musculus MFI (mouse) assessed as hair erection at 50 mg/kg, ip; type: toxicity, organism-based; set-up: dose 50 mg/kg, route intraperitoneal; conditions: in vivo
smiles,measurement,setting,value
CC(CN1CCN(C)CC1)Oc1cccc(Cl)c1Cl.O=C(O)C(=O)O (racemic),Activity,Mus musculus [1],Toxic
same,Activity,Mus musculus [2],Toxic
same,Activity,Mus musculus [3],Toxic
same,Activity,Mus musculus [4],Toxic
same,Activity,Mus musculus [5],Toxic
same,Activity,Mus musculus [6],Toxic
same,inhibition in vivo at 90 mg/kg,Mus musculus [7],85%
same,Activity,Mus musculus [8],Toxic
same,Activity,Mus musculus [9],Toxic
same,Activity,Mus musculus [10],Toxic
same,Activity,Mus musculus [11],Toxic
CC(COc1cc(Cl)ccc1Cl)N1CCN(C)CC1.O=C(O)C(=O)O (racemic),Activity,Mus musculus [1],Toxic
same,Activity,Mus musculus [12],Toxic
same,Activity,Mus musculus [13],Toxic
same,Activity,Mus musculus [2],Toxic
same,Activity,Mus musculus [14],Toxic
same,Activity,Mus musculus [15],Toxic
same,Activity,Mus musculus [3],Toxic
same,Activity,Mus musculus [4],Toxic
same,Activity,Mus musculus [5],Toxic
same,Activity,Mus musculus [16],Toxic
same,Activity,Mus musculus [17],Toxic
same,minimal effective dose,Mus musculus [18],60 mg/kg
same,inhibition in vivo at 135 mg/kg,Mus musculus [19],100%
same,Activity,Mus musculus [20],Toxic
same,Activity,Mus musculus [21],Toxic
same,Activity,Mus musculus [22],Toxic
same,Activity,Mus musculus [23],Toxic
same,Activity,Mus musculus [6],Toxic
same,Activity,Mus musculus [24],Toxic
same,inhibition in vivo at 90 mg/kg,Mus musculus [7],62.5%
same,Activity,Mus musculus [25],Toxic
same,Activity,Mus musculus [8],Toxic
same,Activity,Mus musculus [26],Toxic
same,Activity,Mus musculus [27],Toxic
same,MTC,Mus musculus [28],90 mg/kg
same,Activity,Mus musculus [9],Toxic
same,Activity,Mus musculus [29],Toxic
same,Activity,Mus musculus [10],Toxic
same,Activity,Mus musculus [11],Toxic
same,Activity,Mus musculus [30],Toxic
same,inhibition in vivo at 50 mg/kg,Mus musculus [31],50%
same,Activity,Mus musculus [32],Toxic
same,Activity,Mus musculus [33],Toxic
same,Activity,Mus musculus [34],Toxic
same,Activity,Mus musculus [35],Toxic
